ChEMBL document CHEMBL1127134, “Synthesis and antibacterial activity of (1R,5R,6R)-2-tert-butyl-6-(1-hydroxyethyl)oxapenem-3-carboxylic acid” (1993)

Key:
Type in all cases: functional
Staphylococcus aureus [1] = test: Minimum inhibitory concentration required for the antibacterial activity against Staphylococcus aureus 133
Bacteroides fragilis [2] = test: Minimum inhibitory concentration required for the antibacterial activity against Bacillus fragilis Kr II
Clostridium perfringens [3] = test: Minimum inhibitory concentration required for the antibacterial activity against Clostridium perfringens DSM 756
Escherichia coli [4] = test: Minimum inhibitory concentration required for the antibacterial activity against Escherichia coli 4322
[5] = system: Peptoniphilus asaccharolyticus; test: Minimum inhibitory concentration required for the antibacterial activity against Peptococcus asacchar. DSM 20463
Staphylococcus aureus [6] = test: Minimum inhibitory concentration required for the antibacterial activity against Staphylococcus aureus 25697
Pseudomonas aeruginosa [7] = test: Minimum inhibitory concentration required for the antibacterial activity against Pseudomonas aeruginosa 7451
Thomasclavelia ramosa = test: Minimum inhibitory concentration required for the antibacterial activity against Clostridium ramosum DSM 1402
Enterococcus [8] = test: Minimum inhibitory concentration required for the antibacterial activity against Enterococcus 27158
Bacteroides fragilis [9] = test: Minimum inhibitory concentration required for the antibacterial activity against Bacillus fragilis 010848
Pseudomonas aeruginosa [10] = test: Minimum inhibitory concentration required for the antibacterial activity against Pseudomonas aeruginosa 7053
Providencia rettgeri = test: Minimum inhibitory concentration required for the antibacterial activity against Proteus rettgeri 1007
Clostridium perfringens [11] = test: Minimum inhibitory concentration required for the antibacterial activity against Clostridium perfringens 1024027
Escherichia coli [12] = test: Minimum inhibitory concentration required for the antibacterial activity against Escherichia coli Neumann
Proteus mirabilis = test: Minimum inhibitory concentration required for the antibacterial activity against Proteus mirabilis 1235
[13] = system: Peptostreptococcus anaerobius; test: Minimum inhibitory concentration required for the antibacterial activity against Peptostrept. anaer. Kr II
Enterococcus [14] = test: Minimum inhibitory concentration required for the antibacterial activity against Enterococcus 9790
[15] = system: Peptostreptococcus anaerobius; test: Minimum inhibitory concentration required for the antibacterial activity against Peptostrept. anaer. 222 I/82
Enterobacter cloacae = test: Minimum inhibitory concentration required for the antibacterial activity against Enterobacter cloacae 5744
Fusobacterium nucleatum = test: Minimum inhibitory concentration required for the antibacterial activity against Fusobacterium nucleatum DSM 20482
Micrococcus luteus = test: Minimum inhibitory concentration required for the antibacterial activity against Micrococcus luteus
Staphylococcus aureus [16] = test: Minimum inhibitory concentration required for the antibacterial activity against Staphylococcus aureus 4978 Israel
Staphylococcus aureus [17] = test: Minimum inhibitory concentration required for the antibacterial activity against Staphylococcus aureus 25768
Staphylococcus aureus [18] = test: Minimum inhibitory concentration required for the antibacterial activity against Staphylococcus aureus 41h Belgium
Escherichia coli [19] = test: Minimum inhibitory concentration required for the antibacterial activity against Escherichia coli F14
Escherichia coli [20] = test: Minimum inhibitory concentration required for the antibacterial activity against Escherichia coli T7
Phocaeicola vulgatus = test: Minimum inhibitory concentration required for the antibacterial activity against Bacillus valgatus Kr III
Proteus vulgaris [21] = test: Minimum inhibitory concentration required for the antibacterial activity against Proteus vulgaris N6
Bacteroides fragilis [22] = test: Minimum inhibitory concentration required for the antibacterial activity against Bacillus fragilis 4661 Kr
Staphylococcus aureus [23] = test: Minimum inhibitory concentration required for the antibacterial activity against Staphylococcus aureus 25470
[24] = system: Bacteroides thetaiotaomicron; test: Minimum inhibitory concentration required for the antibacterial activity against Bacillus thetaiotaomicron DSM 2079
[25] = system: Peptostreptococcus anaerobius; test: Minimum inhibitory concentration required for the antibacterial activity against Peptostrept. anaer. Kr I
Morganella morganii = test: Minimum inhibitory concentration required for the antibacterial activity against Proteus Morganii 932
Serratia = test: Minimum inhibitory concentration required for the antibacterial activity against Serratia 16002
Anaerococcus prevotii = test: Minimum inhibitory concentration required for the antibacterial activity against Peptococcus prevotii DSM 20548
Klebsiella [26] = test: Minimum inhibitory concentration required for the antibacterial activity against Klebsiella 1852
Bacteroides ovatus = test: Minimum inhibitory concentration required for the antibacterial activity against Bacillus ovatus Heidelberg 32
Clostridium sporogenes = test: Minimum inhibitory concentration required for the antibacterial activity against Clostridium sporogenes
Enterococcus faecalis [27] = test: Minimum inhibitory concentration required for the antibacterial activity against Streptococcus faecalis 113
Staphylococcus aureus [28] = test: Minimum inhibitory concentration required for the antibacterial activity against Staphylococcus aureus 90 Innsbruck
[29] = system: Peptostreptococcus anaerobius; test: Minimum inhibitory concentration required for the antibacterial activity against Peptostrept. anaer. DSM 20357
Bacteroides fragilis [30] = test: Minimum inhibitory concentration required for the antibacterial activity against Bacillus fragilis L 1168 Italien
Bacteroides fragilis [31] = test: Minimum inhibitory concentration required for the antibacterial activity against Bacillus fragilis GA I - 0558 Japan
Bacteroides fragilis [32] = test: Minimum inhibitory concentration required for the antibacterial activity against Bacillus fragilis 1560 I/82
Escherichia coli [33] = test: Minimum inhibitory concentration required for the antibacterial activity against Escherichia coli C165
Bacteroides fragilis [34] = test: Minimum inhibitory concentration required for the antibacterial activity against Bacillus fragilis 2034/35 Kr 43
Staphylococcus aureus [35] = test: Minimum inhibitory concentration required for the antibacterial activity against Staphylococcus aureus 1756
Clostridium perfringens [36] = test: Minimum inhibitory concentration required for the antibacterial activity against Clostridium perfringens 24071
[37] = system: Prevotella melaninogenica; test: Minimum inhibitory concentration required for the antibacterial activity against Bacillus melaninogenicus Kr
Escherichia coli [38] = test: Minimum inhibitory concentration required for the antibacterial activity against Escherichia coli 183/58
Staphylococcus = test: Minimum inhibitory concentration required for the antibacterial activity against Staphylococcus E 25485
Providencia sp. = test: Minimum inhibitory concentration required for the antibacterial activity against Providencia 12012
Staphylococcus aureus [39] = test: Minimum inhibitory concentration required for the antibacterial activity against Staphylococcus aureus 25085
Klebsiella [40] = test: Minimum inhibitory concentration required for the antibacterial activity against Klebsiella 57USA
[41] = system: Parabacteroides distasonis; test: Minimum inhibitory concentration required for the antibacterial activity against Bacillus distasonis Heidelberg
Streptococcus pneumoniae = test: Minimum inhibitory concentration required for the antibacterial activity against Streptococcus pneumoniae 4959
Bacteroides fragilis [42] = test: Minimum inhibitory concentration required for the antibacterial activity against Bacillus fragilis 4891/91 Kr
Enterococcus faecalis [43] = test: Minimum inhibitory concentration required for the antibacterial activity against Streptococcus faecalis 27101
Escherichia coli [44] = test: Minimum inhibitory concentration required for the antibacterial activity against Escherichia coli T A261
Bacteroides fragilis [45] = test: Minimum inhibitory concentration required for the antibacterial activity against Bacillus fragilis 06688
Staphylococcus aureus [46] = test: Minimum inhibitory concentration required for the antibacterial activity against Staphylococcus aureus 25455
Proteus vulgaris [47] = test: Minimum inhibitory concentration required for the antibacterial activity against Proteus vulgaris 1017
Pseudomonas aeruginosa [48] = test: Minimum inhibitory concentration required for the antibacterial activity against Pseudomonas aeruginosa F41
[49] = system: Prevotella melaninogenica; test: Minimum inhibitory concentration required for the antibacterial activity against Bacillus melaninogenicus Heidelberg
[50] = system: Bacteroides thetaiotaomicron; test: Minimum inhibitory concentration required for the antibacterial activity against Bacillus thetaiotaomicron 235 Munchen

**Q.** How did the MIC (Staphylococcus aureus [1]) turn out when C[C@@H](O)[C@H]1C(=O)N2C(C(=O)[O-])=C(C(C)(C)C)O[C@H]12.[K+] was run?
**A.** The MIC was 0.12 µg/mL.

**Q.** What about the MIC (Bacteroides fragilis [2]) of the same compound?
**A.** Its MIC is 2 µg/mL.

**Q.** And the MIC (Clostridium perfringens [3])?
**A.** The MIC was 1 µg/mL.

**Q.** What about the MIC (Escherichia coli [4]) of the same compound?
**A.** The MIC was 2 µg/mL.

**Q.** What about the MIC [5] of the same compound?
**A.** The MIC was 0.5 µg/mL.

**Q.** What about the MIC (Staphylococcus aureus [6]) of the same compound?
**A.** Its MIC is 1.56 µg/mL.

**Q.** And the MIC (Pseudomonas aeruginosa [7])?
**A.** The MIC was > 128 µg/mL.

**Q.** What about the MIC (Thomasclavelia ramosa) of the same compound?
**A.** The MIC was 1 µg/mL.

**Q.** And the MIC (Enterococcus [8])?
**A.** The MIC was 16 µg/mL.

**Q.** And the MIC (Bacteroides fragilis [9])?
**A.** Its MIC is 2 µg/mL.

**Q.** What about the MIC (Pseudomonas aeruginosa [10]) of the same compound?
**A.** The MIC was > 128 µg/mL.

**Q.** What about the MIC (Providencia rettgeri) of the same compound?
**A.** The MIC was 2 µg/mL.

**Q.** And the MIC (Clostridium perfringens [11])?
**A.** The MIC was 1 µg/mL.

**Q.** What about the MIC (Escherichia coli [12]) of the same compound?
**A.** The MIC was 2 µg/mL.

**Q.** And the MIC (Proteus mirabilis)?
**A.** The MIC was 4 µg/mL.

**Q.** What about the MIC [13] of the same compound?
**A.** Its MIC is 0.25 µg/mL.

**Q.** And the MIC (Enterococcus [14])?
**A.** Its MIC is 2 µg/mL.

**Q.** And the MIC [15]?
**A.** Its MIC is 2 µg/mL.

**Q.** And the MIC (Enterobacter cloacae)?
**A.** Its MIC is 32 µg/mL.

**Q.** And the MIC (Fusobacterium nucleatum)?
**A.** The MIC was 0.5 µg/mL.

**Q.** What about the MIC (Micrococcus luteus) of the same compound?
**A.** The MIC was ≤ 0.06 µg/mL.

**Q.** And the MIC (Staphylococcus aureus [16])?
**A.** The MIC was ≤ 0.78 µg/mL.

**Q.** What about the MIC (Staphylococcus aureus [17]) of the same compound?
**A.** Its MIC is ≤ 0.78 µg/mL.

**Q.** And the MIC (Staphylococcus aureus [18])?
**A.** The MIC was 12.5 µg/mL.

**Q.** What about the MIC (Escherichia coli [19]) of the same compound?
**A.** The MIC was 16 µg/mL.

**Q.** What about the MIC (Escherichia coli [20]) of the same compound?
**A.** The MIC was 2 µg/mL.

**Q.** And the MIC (Phocaeicola vulgatus)?
**A.** The MIC was 1 µg/mL.

**Q.** And the MIC (Proteus vulgaris [21])?
**A.** The MIC was 1 µg/mL.

**Q.** And the MIC (Bacteroides fragilis [22])?
**A.** The MIC was 2 µg/mL.

**Q.** What about the MIC (Staphylococcus aureus [23]) of the same compound?
**A.** The MIC was 50 µg/mL.

**Q.** What about the MIC [24] of the same compound?
**A.** The MIC was 1 µg/mL.

**Q.** What about the MIC [25] of the same compound?
**A.** The MIC was 2 µg/mL.

**Q.** What about the MIC (Morganella morganii) of the same compound?
**A.** Its MIC is 2 µg/mL.

**Q.** What about the MIC (Serratia) of the same compound?
**A.** Its MIC is 64 µg/mL.

**Q.** And the MIC (Anaerococcus prevotii)?
**A.** Its MIC is 2 µg/mL.

**Q.** And the MIC (Klebsiella [26])?
**A.** Its MIC is 16 µg/mL.

**Q.** What about the MIC (Bacteroides ovatus) of the same compound?
**A.** The MIC was 2 µg/mL.

**Q.** What about the MIC (Clostridium sporogenes) of the same compound?
**A.** Its MIC is 0.5 µg/mL.

**Q.** What about the MIC (Enterococcus faecalis [27]) of the same compound?
**A.** The MIC was 16 µg/mL.

**Q.** What about the MIC (Staphylococcus aureus [28]) of the same compound?
**A.** Its MIC is ≤ 0.78 µg/mL.

**Q.** What about the MIC [29] of the same compound?
**A.** The MIC was 1 µg/mL.

**Q.** What about the MIC (Bacteroides fragilis [30]) of the same compound?
**A.** The MIC was 2 µg/mL.

**Q.** What about the MIC (Bacteroides fragilis [31]) of the same compound?
**A.** Its MIC is 2 µg/mL.

**Q.** What about the MIC (Bacteroides fragilis [32]) of the same compound?
**A.** Its MIC is 2 µg/mL.

**Q.** And the MIC (Escherichia coli [33])?
**A.** The MIC was 8 µg/mL.

**Q.** What about the MIC (Bacteroides fragilis [34]) of the same compound?
**A.** Its MIC is 2 µg/mL.

**Q.** And the MIC (Staphylococcus aureus [35])?
**A.** Its MIC is 2 µg/mL.

**Q.** What about the MIC (Staphylococcus aureus [35]; Staphylococcus aureus, read-out: MIC) of the same compound?
**A.** The MIC was 1.56 µg/mL.

**Q.** What about the MIC (Clostridium perfringens [36]) of the same compound?
**A.** The MIC was 0.5 µg/mL.

**Q.** And the MIC [37]?
**A.** The MIC was 0.5 µg/mL.

**Q.** What about the MIC (Escherichia coli [38]) of the same compound?
**A.** Its MIC is 1 µg/mL.

**Q.** What about the MIC (Staphylococcus) of the same compound?
**A.** Its MIC is ≤ 0.06 µg/mL.

**Q.** And the MIC (Providencia sp.)?
**A.** The MIC was 4 µg/mL.

**Q.** And the MIC (Staphylococcus aureus [39])?
**A.** The MIC was 1.56 µg/mL.

**Q.** What about the MIC (Klebsiella [40]) of the same compound?
**A.** The MIC was 4 µg/mL.

**Q.** What about the MIC [41] of the same compound?
**A.** Its MIC is 8 µg/mL.

**Q.** And the MIC (Streptococcus pneumoniae)?
**A.** Its MIC is 0.25 µg/mL.

**Q.** And the MIC (Bacteroides fragilis [42])?
**A.** Its MIC is 2 µg/mL.

**Q.** And the MIC (Enterococcus faecalis [43])?
**A.** The MIC was 2 µg/mL.

**Q.** And the MIC (Escherichia coli [44])?
**A.** The MIC was 2 µg/mL.

**Q.** What about the MIC (Bacteroides fragilis [45]) of the same compound?
**A.** Its MIC is 2 µg/mL.

**Q.** And the MIC (Staphylococcus aureus [46])?
**A.** Its MIC is 0.12 µg/mL.

**Q.** What about the MIC (Proteus vulgaris [47]) of the same compound?
**A.** The MIC was 1 µg/mL.

**Q.** And the MIC (Pseudomonas aeruginosa [48])?
**A.** Its MIC is > 128 µg/mL.

**Q.** What about the MIC [49] of the same compound?
**A.** Its MIC is 4 µg/mL.

**Q.** And the MIC [50]?
**A.** Its MIC is 4 µg/mL.
